Laboratory results from patent publication US10232013B2, “Use of an antimicrobial peptide TP4 in treating a cancer” (Academia Sinica, priority 2016, dated 2019).
Structures can show the parent of a compound that is named as a salt.

Columns and labels:
Assay type in all cases: cell-based, human
MB231 (MDA-MB231) cells = assay: MTS cell viability assay, MB231; settings: MB231, inhibitor added 30 min prior to TP4, cell viability
Procedure: Cell-lines used in this study were purchased from the Bioresource Collection and Research Center (BCRC) in and the cells were cultured by the standard cell culture procedures and conditions provided by the BCRC. MB231 (BCRC 60425), MB453 (BCRC 60429), and HDF cells were cultured as previously described by Ting et al. MCF7 […] cells were maintained in α-MEM medium (ThermoFisher Scientific) supplemented with 2 mM L-glutamine, 10% FBS, 0.1 mM non-essential amino acids, 1 mM sodium pyruvate, and antibiotics (100 U mL^−1 penicillin G and […] streptomycin). M10 (BCRC 60197) cells were maintained in α-MEM medium (ThermoFisher Scientific) supplemented with 10% FBS and antibiotics. With the exception of MB231 and MB453, all cells were cultured at 37° C. with 5% CO2. For the cell viability and transfection assay, 1×10^4 cells [5×10^3 M10 cells were seeded and cultured for 48 h to allow the cells sufficient time for attachment] were seeded into the wells of a 96-well plate and cultured overnight. For the transfection assays, cells were transfected with 0.1-0.4 μg FOSB/FOSAB expression plasmid (Origene Technology Inc.) and cell viability was determined after 72 h. The transfection efficiencies (number of cells expressing eGFP/all cells) of the MB231 transfection assays were determined by observing ten randomly selected fields (from three independent transfections) of control GFP plasmid transfections under an inverted microscope (Olympus, IX71) coupled to a digital camera (Olympus DP80), using an […] (LCPlanFI 20×/0.40 Ph1). CellSens standard software (Olympus) was used for image acquisition. During the drug treatment assay, inhibitors (PD98059, BAPTA-AM, and AlP II) were added 30 min prior to TP4, and cell viability was determined at indicated time-points. Transfection was performed using LipofectAMINE™ 3000 (ThermoFisher Scientific), according to the manufacturer's recommendations. Knock-down cells were generated by transducing MB231 cells with pre-synthesized FOSB (or control) shRNA lentiviral particles (Santa Cruz Biotechnology), and selecting puromycin-resistant cells in accordance with the manufacturer's standard protocol. MB231 or M10 cells stably expressing eGFP or mOrange2 were generated through transfection with peGFP-puromycin or pmOrange2-C1 plasmid, followed by puromycin (5 μg mL^−1) or G418 (500 μg mL^−1) selection as described above.
Cell viability was quantitatively analyzed using the CellTiter-Glo® Luminescent Cell Viability Assay kit (ATP assay) and CellTiter 96® AQueous Non-Radioactive Cell Proliferation Assay kit (MTS assay) (Promega) in accordance with the manufacturer's protocol. For MTS assay, 1×10^4 cells were seeded into the wells of a 96-well plate and cultured overnight [5×10^3 M10 cells were seeded and cultured for 48 h to enable sufficient well attachment]. Cells were subsequently treated with different doses of TP4 (2.5-20 μg mL^−1) and harvested at the indicated time-points (3-24 h). Reaction mixtures (20 μL: MTS+PMS, using a ratio 20:1) were directly added to the cells, and the plates were incubated for 3 h at 37° C. Absorbance at 490 nm is directly proportional to the number of living cells in culture and was measured using a photometer (SpectraMax® i3, Molecular Devices). ATP assay was performed as previously described by Ting et al. Lactate dehydrogenase (LDH) assays were performed by quantitatively measuring cell lysis with a Cytotoxicity Detection Kit^PLUS (LDH) (Roche) in accordance with the manufacturer's protocol. The LDH standard was purchased from Cayman Chemical. Briefly, 1×10^4 cells were seeded into the wells of a 96-well plate and cultured overnight. Culture media were replaced with fresh medium containing 1% FBS and cells were subsequently treated with different doses of TP4 (2.5-20 μg mL^−1). Supernatants were harvested at 3 h. […]

FOSB in MB231 cells = assay: FOSB induction, Western blot/immunocytochemistry, MB231; settings: for effect of inhibitor on TP4-induced FOSB induction: TNBC cells, pre-treatment prior to TP4, Western blot
Procedure: (§1) Nuclear extracts were prepared as previously described^23. Equal amounts of nuclear extract (200 μg) were used for immunoprecipitation (IP) using Dynabeads protein G (ThermoFisher Scientific), in accordance with the recommended protocol. cJUN antibody (ThermoFisher Scientific, clone C.238.2) was used for immunoprecipitation. Total cell extract preparation and Western blot were performed as previously described^23. Equal amounts of boiled lysate (20 μg of total cell extract) were separated on acrylamide gels, and then transferred to PVDF membranes. The membranes were incubated in blocking solution (0.1 M PBS, 5% non-fat milk, 0.2% Tween-20) for 1 h at room temperature (RT), and then incubated in the same solution with primary or secondary antibodies (GE Healthcare Life Science). […] Membranes were visualized with enhanced chemiluminescence (Immobilon Western Chemiluminescent HRP substrate, Merck Millipore) and detected by an imaging system (UVP, BioSpectrum™ 500). Signal intensities were determined by densitometric analysis (AlphaInnotech) using the AlphaImager program. The results were expressed as relative densitometric units (RDU) (the densitometric units of FOSB+FOSΔB divided by those of GAPDH).
The plasma membrane and mitochondria were stained by pre-incubating biotinylated-TP4 treated cells (14 μg mL^−1, 3 h) with Alexa Flour 647 dye-conjugated wheat germ agglutinin (WGA) (5 μg mL^−1) (ThermoFisher Scientific) for 10 min at 37° C. or with MitoTracker® Red CMXRos probe (200 nM) (ThermoFisher Scientific) for 45 min at 37° C. prior to cell fixation. […] The fluorescent signal (which is proportional to functional mitochondria) was quantitatively determined using Image J software. […] The fluorescent FOSB signal was quantitatively determined using Image J software. […]

FOSB in MB453 cells = assay: FOSB induction, Western blot/immunocytochemistry, MB453; settings: Western blot
Procedure: as §1, with “GAPDH). […]” for “GAPDH).”

FOSB in MCF7 cells = assay: FOSB induction, Western blot/immunocytochemistry, MCF7; settings: Western blot
Procedure: as §1, with “GAPDH). […]” for “GAPDH).”

Compound	effect of inhibitor on TP4-induced TNBC cell death (MB231 (MDA-MB231) cells)	effect of inhibitor on TP4-induced FOSB induction (FOSB in MB231 cells)	FOSB induction (FOSB in MB453 cells)	FOSB induction (FOSB in MCF7 cells)	further results
CC(=O)OCOC(=O)CN(CC(=O)OCOC(C)=O)c1ccccc1OCCOc1ccccc1N(CC(=O)OCOC(C)=O)CC(=O)OCOC(C)=O [BAPTA/AM, 1,2-Bis(2-aminophenoxy)ethane-N,N,N,N-tetraacetic acid tetrakis(acetoxymethyl ester), reference compound]	disrupted	disrupted			
COc1cccc(-c2cc(=O)c3ccccc3o2)c1N [PD98059, reference compound]	disrupted				
CC(=O)O[C@@]12CO[C@@H]1C[C@H](O)[C@@]1(C)C(=O)[C@H](O)C3=C(C)[C@@H](OC(=O)[C@H](O)[C@@H](NC(=O)OC(C)(C)C)c4ccccc4)C[C@@](O)([C@@H](OC(=O)c4ccccc4)[C@H]21)C3(C)C [docetaxel, Docetaxel]			induced FOSB	induced FOSB	
COc1cccc2c1C(=O)c1c(O)c3c(c(O)c1C2=O)C[C@@](O)(C(=O)CO)C[C@@H]3O[C@H]1C[C@H](N)[C@H](O)[C@H](C)O1 [doxorubicin, Doxorubicin hydrochloride]					FOSB induction (FOSB in MB231 cells; MB231 (TNBC) cells, Western blot): induced strong FOSB expression
CC(=O)O[C@H]1C(=O)[C@@]2(C)[C@H]([C@H](OC(=O)c3ccccc3)[C@]3(O)C[C@H](OC(=O)[C@H](O)[C@@H](NC(=O)c4ccccc4)c4ccccc4)C(C)=C1C3(C)C)[C@]1(OC(C)=O)CO[C@@H]1C[C@@H]2O [paclitaxel, Paclitaxel]			induced FOSB	induced FOSB	
Autocamtide-2 related inhibitory peptide II [AIP2, reference compound]	partly prevented	trend towards decrease, but not complete block			
